“Also recorded” adds a separate entry of the source.
Columns and labels:
Neospora caninum NC-1 = test: Microtiter Monolayer Disruption Assay (MMDA), Neospora caninum; assay type: cell-based, Neospora caninum strain NC-1; conditions: BT cells
Protocol: (§1) In order to determine the scope of protection provided by Ponazuril, in vitro testing was conducted. The following strains of parasites were evaluated for their sensitivity to this compound: Strain SN3 of Sarcocystis neurona; strain SF1 of Sarcocystis falcatula; strain RH of Toxoplasma gondii; and the NC-1 strain of Neospora caninum. […]
(§2) Bovine turbinate (BT) cells were used for all in vitro studies. Cells were grown to confluency in 25 cm^2 flasks in RMPI 1640 media supplemented with 10% v/v fetal bovine serum (FBS), 100 Units penicillin (G/mL), […] streptomycin/mL and 5×10^-2 mM 2-mercpatoethanol. After cell confluence was obtained, cells were maintained in the same media with reduced FBS (2% v/v). Cell cultures were incubated at 37 C. in a humidified atmosphere containing 5% carbon dioxide and 95% air.
(§3) For growth of parasites, BT cell monolayers were infected with parasites and examined with an inverted microscope for the development of lesions (cytopathic effect, "CPE") or the presence of many extracellular merozoites. Once lesions were observed, or many extracellular parasites were present, the monolayer was scraped with the tip of a 5 mL pipette and 1 to 3 drops of the merozoite-containing fluid was transferred to two flasks of fresh BT cells. Merozoites of S. neurona and S. falcatula were passaged in this manner every 5 to 10 days while the tachyzoites of T. gondii and N. caninum were passaged every 3 to 4 days.
(§4) The assay used to determine the effectiveness of Ponazuril was the Microtiter Monolayer Disruption Assay (MMDA). This assay was used to determine if the parasites or compound were toxic for BT cells. Flat bottomed 96-well microtiter plates were inoculated with BT cells and the resulting monolayers were used to determine the effects of Toltrazuril and Ponazuril on merozoite production as measured by CPE (plaque formation). […]

Sarcocystis neurona = test: Microtiter Monolayer Disruption Assay (MMDA), Sarcocystis neurona; assay type: cell-based, Sarcocystis neurona strain SN3; conditions: BT cells
Protocol: as §1, §2, §3
(§5) The assay used to determine the effectiveness of Ponazuril was the Microtiter Monolayer Disruption Assay (MMDA). This assay was used to determine if the parasites or compound were toxic for BT cells. Flat bottomed 96-well microtiter plates were inoculated with BT cells and the resulting monolayers were used to determine the effects of Toltrazuril and Ponazuril on merozoite production as measured by CPE (plaque formation). Monolayers were inoculated with parasites (S. neurona or S. falcatula at a count of 50,000/well, T. gondii at a level of 10,000/well, and N. caninum at 20,000/well. All wells were inoculated with the test compound 2 hours after infection. Untreated and […] monolayer wells served as parasite controls and uninfected agent treated BT cells served as toxicity controls. Each treatment was examined in replicates of 6. Each well was visually monitored daily and the assay was stopped when 90-100% of the untreated merozoite infected cells had lysed (90-100% CPE). All wells of the plates were rinsed in Phosphate Buffered Saline (PBS) and fixed in 100% methanol for 5 minutes after which they were stained in crystal violet solution. […]

[1] = Passing of the blood-brain barrier in horses; assay type: in vivo; conditions: after oral Toltrazuril daily for 10 days
Protocol: This experiment was conducted in order to determine whether triazineones such as Toltrazuril can pass the blood-brain barrier. Normal horses were divided into three groups of three horses per group. Group 1 horses received Toltrazuril administered orally as a 5% suspension at a dose level of 2.5 mg/Kg. Group 2 horses received Toltrazuril administered orally as a 5% suspension at a dose level of 5.0 mg/Kg. Group 3 horses received Toltrazuril administered orally as a 5% suspension at a dose level of 7.5 mg/Kg. The dosing was repeated daily for 10 days. Blood samples were drawn at 48, 96 and 240 hours and the concentration of Toltrazuril, Toltrazuril sulfoxide and Ponazuril in the serum was measured. Ten days after the start of the treatment (Day 10), a sample of cerebral spinal fluid was removed from each horse and the concentrations of Toltrazuril, Toltrazuril Sulfoxide and Ponazuril were again measured in these samples. The concentrations of Toltrazuril, Toltrazuril Sulfoxide and Ponazuril in the serum and cerebral spinal fluid are reported in TABLES 5a and 5b.

Sarcocystis falcatula = test: Microtiter Monolayer Disruption Assay (MMDA), Sarcocystis falcatula; assay type: cell-based, Sarcocystis falcatula strain SF1; conditions: BT cells
Protocol: In order to determine the scope of protection provided by Ponazuril, in vitro testing was conducted. The following strains of parasites were evaluated for their sensitivity to this compound: Strain SN3 of Sarcocystis neurona; strain SF1 of Sarcocystis falcatula; strain RH of Toxoplasma gondii; and the NC-1 strain of Neospora caninum. Ponazuril was tested at 2 concentrations (1 μg/mL and 10 μg/mL).
as §2, §3, §5

[2] = system: Bovine turbinate (BT) cells; assay type: cell-based; conditions: uninfected BT cells
Protocol: as §2, §4

[3] = 0.1 μg/mL, read-out: Percent Inhibition of Cell Destruction, 0.1 μg/mL
[4] = 1 μg/mL, read-out: Percent Inhibition of Cell Destruction, 1 μg/mL
[5] = 5.0 μg/mL, read-out: Percent Inhibition of Cell Destruction, 5.0 μg/mL
[6] = 10 μg/mL, read-out: Percent Inhibition of Cell Destruction, 10 μg/mL

In the case of `Cc1cc(-n2c(=O)[nH]c(=O)n(C)c2=O)ccc1Oc1ccc(S(=O)(=O)C(F)(F)F)cc1` [Ponazuril], the inhibition at 0.001 µg/mL (Neospora caninum NC-1; 0.001 μg/mL, read-out: Percent Inhibition of Cell Destruction, 0.001 μg/mL) was 3%, the inhibition at 0.01 µg/mL (Neospora caninum NC-1; 0.01 μg/mL, read-out: Percent Inhibition of Cell Destruction, 0.01 μg/mL) was 13% and the inhibition at 1 µg/mL (Neospora caninum NC-1; 1.0 μg/mL, read-out: Percent Inhibition of Cell Destruction, 1.0 μg/mL) was 100%. The inhibition at 0.1 µg/mL (Sarcocystis neurona; [3]) was 0%, the inhibition at 1 µg/mL (Sarcocystis neurona; [4]) was 40% and the inhibition at 5 µg/mL (Sarcocystis neurona; [5]) was 90%. For the same molecule, the inhibition at 10 µg/mL (Sarcocystis neurona; [6]) was 100%, the “crossing of the blood-brain barrier” value [1] was “effectively cross the blood-brain barrier; also recorded: crosses this barrier more effectively than does Toltrazuril” and the inhibition at 0.1 µg/mL (Sarcocystis falcatula; [3]) was 61%. For the same molecule, the inhibition at 1 µg/mL (Sarcocystis falcatula; [4]) was 100%, the inhibition at 5 µg/mL (Sarcocystis falcatula; [5]) was 100% and the inhibition at 10 µg/mL (Sarcocystis falcatula; [6]) was 100%. For the same molecule, the “toxicity to the BT cells” value [2] was “not toxic”.

— patent US6150361A, “Triazineone compounds for treating diseases due to sarcosystis, neospora and toxoplasma” (Bayer Corporation, priority 1998, dated 2000)
